In EPA's ToxValDB 9.5 (doi:10.2903/j.efsa.2018.5251):

Experiments:
Anas platyrhynchos = settings: short-term; oral; feed; mortality
Apis mellifera = settings: acute, mortality
Colinus virginianus = settings: acute; oral; mortality
Coturnix japonica = settings: reproduction developmental
Lepomis macrochirus = settings: acute; duration: 96 hours
Rattus norvegicus = settings: for LD50: acute, oral, mortality
Tagia sp. = settings: for LC50: acute; for NOEC: chronic/long-term, duration: 8 weeks
Hypoaspis aculeifer = assay: LR50; higher = less toxic; settings: acute
Folsomia candida = settings: chronic/long-term; duration: 28 days
[1] = reproduction developmental, reproduction

COC(=O)[N-]S(=O)(=O)c1ccc(N)cc1.[Na+] [Asulam-sodium]
LC50 (Anas platyrhynchos): > 100000 mg/kg
LD50 (Apis mellifera; dermal): > 100 µg/piece
LD50 (Apis mellifera; oral, unspecified): > 124 µg/piece
LD50 (Colinus virginianus): > 1830 mg/kg-day
NOAEL (Coturnix japonica): 65 mg/kg-day
LC50 (Lepomis macrochirus): > 91.3 mg/L
LD50 (Rattus norvegicus): > 4560 mg/kg-day
NOAEL (Rattus norvegicus; [1]): 46 mg/kg-day
NOEL (Rattus norvegicus; [1]): 46 mg/kg-day
LC50 (Tagia sp.; duration: 14 days): 1000 mg/kg
NOEC (Tagia sp.): 181 mg/kg
LR50 (Hypoaspis aculeifer): > 4370 mg/kg

Nc1ccc(S(N)(=O)=O)cc1 [Sulfanilamide]
NOAEC (Folsomia candida): 50 mg/kg
LD50 (Rattus norvegicus; F): > 2000 mg/kg-day
LC50 (Tagia sp.): > 1000 mg/kg
NOEC (Tagia sp.): 3.75 mg/kg
